Data published in ChEMBL document CHEMBL3817823 (J Med Chem, 2016).
The source made the active and inactive calls.

Tests used:
[1] = target: Histone-lysine N-methyltransferase KMT5B (Homo sapiens) (UniProt Q4FZB7); test: Inhibition of SUV420H1 (unknown origin) at 1 to 50 uM by scintillation proximity assay
[2] = target: Histone-lysine N-methyltransferase SUV39H1 (Homo sapiens) (UniProt O43463); test: Inhibition of SUV39H1 (unknown origin) at 1 to 50 uM by scintillation proximity assay
[3] = target: N-lysine methyltransferase KMT5A (Homo sapiens) (UniProt Q9NQR1); test: Inhibition of SETD8 (unknown origin) at 1 to 50 uM by scintillation proximity assay
N-lysine methyltransferase KMT5A (Homo sapiens), sequence (Q9NQR1 whole entry): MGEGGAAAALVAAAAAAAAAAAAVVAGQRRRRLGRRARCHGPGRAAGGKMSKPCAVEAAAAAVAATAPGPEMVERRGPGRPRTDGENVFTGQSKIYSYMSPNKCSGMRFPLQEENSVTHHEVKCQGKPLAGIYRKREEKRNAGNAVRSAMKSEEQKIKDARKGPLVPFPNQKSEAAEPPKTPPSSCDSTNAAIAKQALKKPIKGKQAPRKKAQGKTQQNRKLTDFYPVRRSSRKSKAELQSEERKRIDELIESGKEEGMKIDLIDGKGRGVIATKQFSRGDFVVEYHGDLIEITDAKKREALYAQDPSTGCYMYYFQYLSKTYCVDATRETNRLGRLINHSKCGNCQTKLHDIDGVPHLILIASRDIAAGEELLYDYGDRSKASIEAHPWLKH

[4] = target: Histone-lysine N-methyltransferase SETDB1 (Homo sapiens) (UniProt Q15047); test: Inhibition of SETDB1 (unknown origin) at 1 to 50 uM by scintillation proximity assay

Measured: inhibition

Histone-lysine N-methyltransferase KMT5B (Homo sapiens), sequence (Q4FZB7 whole entry, looked up): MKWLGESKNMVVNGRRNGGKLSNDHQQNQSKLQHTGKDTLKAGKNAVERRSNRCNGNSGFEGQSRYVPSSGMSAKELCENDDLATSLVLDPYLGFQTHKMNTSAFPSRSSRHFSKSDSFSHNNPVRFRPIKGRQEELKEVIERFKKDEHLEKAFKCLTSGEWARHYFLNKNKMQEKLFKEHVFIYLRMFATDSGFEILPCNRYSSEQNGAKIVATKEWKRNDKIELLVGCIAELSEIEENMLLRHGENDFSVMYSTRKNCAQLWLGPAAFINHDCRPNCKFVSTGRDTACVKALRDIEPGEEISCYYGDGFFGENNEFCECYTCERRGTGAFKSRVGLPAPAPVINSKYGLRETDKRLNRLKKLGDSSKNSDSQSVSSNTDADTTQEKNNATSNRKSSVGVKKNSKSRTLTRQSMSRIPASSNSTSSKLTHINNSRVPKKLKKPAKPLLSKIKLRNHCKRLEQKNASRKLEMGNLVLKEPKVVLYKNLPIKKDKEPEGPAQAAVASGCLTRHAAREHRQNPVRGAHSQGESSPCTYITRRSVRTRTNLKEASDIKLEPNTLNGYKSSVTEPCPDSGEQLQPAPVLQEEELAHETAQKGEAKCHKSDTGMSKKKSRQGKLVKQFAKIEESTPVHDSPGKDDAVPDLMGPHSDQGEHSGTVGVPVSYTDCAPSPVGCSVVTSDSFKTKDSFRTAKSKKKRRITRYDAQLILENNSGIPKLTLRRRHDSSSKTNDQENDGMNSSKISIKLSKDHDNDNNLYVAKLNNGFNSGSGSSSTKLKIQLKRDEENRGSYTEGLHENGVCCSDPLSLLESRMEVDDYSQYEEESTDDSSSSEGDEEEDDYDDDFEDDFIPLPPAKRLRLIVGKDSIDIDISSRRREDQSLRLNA
Histone-lysine N-methyltransferase SUV39H1 (Homo sapiens), sequence (O43463 whole entry): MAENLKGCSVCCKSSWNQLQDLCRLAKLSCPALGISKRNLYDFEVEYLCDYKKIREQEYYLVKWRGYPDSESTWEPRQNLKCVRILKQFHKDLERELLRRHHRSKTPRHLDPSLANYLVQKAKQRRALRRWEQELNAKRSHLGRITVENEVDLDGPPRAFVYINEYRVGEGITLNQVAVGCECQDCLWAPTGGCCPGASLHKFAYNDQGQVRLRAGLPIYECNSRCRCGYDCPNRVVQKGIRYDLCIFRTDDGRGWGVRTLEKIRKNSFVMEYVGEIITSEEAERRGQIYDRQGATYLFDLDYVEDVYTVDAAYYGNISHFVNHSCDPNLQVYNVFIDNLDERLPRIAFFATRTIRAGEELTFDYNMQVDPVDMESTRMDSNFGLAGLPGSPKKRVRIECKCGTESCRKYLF

CCN(C(=O)CO)[C@H]1CN(/C(=N\C#N)Nc2cccc(OC(F)F)c2)N=C1c1ccc(Cl)c(Cl)c1
inactive: all assays above
